Data: ChEMBL document CHEMBL3616404, “Expanding the chemical space of human serine racemase inhibitors” (Bioorg Med Chem Lett, 2015)

Columns and labels:
[1] = biological target: T1, Serine racemase (Homo sapiens) (UniProt Q9GZT4); test: Inhibition of hexa-His-tagged purified human recombinant serine racemase expressed in Escherichia coli BL21 Codonplus (DE3)-RIL cells assessed as reduction in beta-elimination of L-serine at 5 mM by spectrophotomtery
T1 sequence (whole entry): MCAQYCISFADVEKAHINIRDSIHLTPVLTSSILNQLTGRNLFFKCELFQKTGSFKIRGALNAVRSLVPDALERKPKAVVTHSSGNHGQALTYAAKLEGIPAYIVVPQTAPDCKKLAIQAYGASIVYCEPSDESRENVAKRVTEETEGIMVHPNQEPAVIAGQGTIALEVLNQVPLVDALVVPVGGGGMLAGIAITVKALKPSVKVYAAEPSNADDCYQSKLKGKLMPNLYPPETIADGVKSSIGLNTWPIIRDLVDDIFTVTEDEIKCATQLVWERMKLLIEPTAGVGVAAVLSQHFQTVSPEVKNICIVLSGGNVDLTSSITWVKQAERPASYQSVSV

[2] = biological target: T2, Serine racemase (Homo sapiens, UniProt Q9GZT4); test: Inhibition of hexa-His-tagged purified human recombinant serine racemase expressed in Escherichia coli BL21 Codonplus (DE3)-RIL cells assessed as reduction in beta-elimination of L-serine at by spectrophotomtery
T2 sequence (Q9GZT4 whole entry): T1 sequence (whole entry)

[3] = biological target: T1, Serine racemase (Homo sapiens); test: Inhibition of hexa-His-tagged purified human recombinant serine racemase expressed in Escherichia coli BL21 Codonplus (DE3)-RIL cells assessed as reduction in beta-elimination of L-serine at 2.8 mM by spectrophotomtery
[4] = biological target: T2, Serine racemase; test: Inhibition of human recombinant serine racemase expressed in Escherichia coli Rosetta 2 (DE3) cells using L-serine as substrate by horseradish peroxidase based couple assay
[5] = biological target: T1, Serine racemase (Homo sapiens); conditions: 330 uM
Description: Inhibition of hexa-His-tagged purified human recombinant serine racemase expressed in Escherichia coli BL21 Codonplus (DE3)-RIL cells assessed as reduction in beta-elimination of L-serine at 330 uM by spectrophotomtery

| SMILES | inhibition [1] | Ki [2] | inhibition [3] | Ki [4] | inhibition [5] |
| --- | --- | --- | --- | --- | --- |
| O=C(O)NCS(=O)(=O)c1cccs1 | 70% | 1500 µM |  |  |  |
| O=C(O)COCC(=O)Cc1cc(SCCO)cc([N+](=O)[O-])c1 |  | 4500 µM | 29% |  |  |
| CN1C(=O)C(=CNC(CC(=O)O)C(=O)O)C(=O)N(C)C1=O (stereo unspecified) | 66% | 1700 µM |  |  |  |
| O=[N+]([O-])c1cccnc1SCC(O)CO (stereo unspecified) |  |  | 0% |  |  |
| O=C(O)CC(CC(=O)O)C(=O)O [TRICARBALLYLIC ACID] |  | 1300 µM | 59% |  |  |
| O=C(O)CC(=O)O [MALONIC ACID] |  | 66 µM |  | 59 µM | 76% |
| CC[C@H](NS(=O)(=O)c1ccc([N+](=O)[O-])cc1)C(=O)O | 70% | 1500 µM |  |  |  |
| O=C(O)CC1(C(=O)O)CN2CCC1CC2 (stereo unspecified) | 2% | > 10000 µM |  |  |  |
